Assay results published in paper PMC7913524, “Novel Biphenyl Amines Inhibit Oestrogen Receptor (ER)-α in ER-Positive Mammary Carcinoma Cells” (Molecules, 2021).
Read-outs that look alike come from different tables or passages of the source.

Assays:
MCF7 cells = test: AlamarBlue cell viability assay, MCF7; assay type: cell-based, human; settings: read-out: Cell Viability (MCF7 Cells) IC50 ± SD
Procedure: (§1) Next, we determined the potential functional effects of novel ATBA compounds on the viability of MCF7 cells using an AlamarBlue® cell viability assay. […] We also determined the functional efficacy of the 4c compound in additional ER+ MC cell lines using an AlamarBlue® cell viability assay.
The human Michigan Cancer Foundation-7 (MCF7) cell line was obtained from the American Type Culture Collection (ATCC, Rockville, Gaithersburg, MD, USA) and was cultured as per ATCC propagation instructions.
(§2) AlamarBlue®, 3D Matrigel, and luciferase assay: AlamarBlue® cell viability kits were obtained from ThemoFisher Scientific (Waltham, Massachusetts, USA), and the assay was performed as previously described. 3D Matrigel assays were performed as previously described. Luciferase assays were performed as previously described. Briefly, transfections were carried out in triplicate using 1 μg of the appropriate luciferase reporter construct or empty vector along with 0.1 μg of Renilla luciferase construct as a control for transfection efficiency. Luciferase activities were measured using the Dual-Luciferase Assay System (Promega Corp, Madison, WI, USA).

ERα = biological target: T1, ERα (Homo sapiens, UniProt P03372); test: ER-alpha competitive binding assay (PolarScreen ER Alpha Competitor, fluorescence polarization); settings: read-out: CBA IC50 + SD (competitive binding affinity)
T1 construct: purchased Life Technologies
T1 sequence (P03372 1-595): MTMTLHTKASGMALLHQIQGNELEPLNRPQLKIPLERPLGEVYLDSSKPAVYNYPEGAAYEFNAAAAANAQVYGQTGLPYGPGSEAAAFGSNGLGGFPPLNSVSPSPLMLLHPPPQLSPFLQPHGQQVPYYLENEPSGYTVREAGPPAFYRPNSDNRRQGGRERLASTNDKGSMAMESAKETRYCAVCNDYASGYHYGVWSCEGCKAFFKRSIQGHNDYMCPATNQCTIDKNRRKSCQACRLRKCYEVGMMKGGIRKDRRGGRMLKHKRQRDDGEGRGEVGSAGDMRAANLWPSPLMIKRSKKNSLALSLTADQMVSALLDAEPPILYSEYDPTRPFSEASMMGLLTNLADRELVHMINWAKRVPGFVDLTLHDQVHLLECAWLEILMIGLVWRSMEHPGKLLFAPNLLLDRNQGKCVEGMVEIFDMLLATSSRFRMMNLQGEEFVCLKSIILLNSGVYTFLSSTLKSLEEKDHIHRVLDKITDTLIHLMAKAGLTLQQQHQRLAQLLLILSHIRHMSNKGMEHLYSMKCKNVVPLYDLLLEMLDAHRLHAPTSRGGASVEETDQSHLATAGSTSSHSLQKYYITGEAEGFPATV
Excerpt: First, to rank the novel biphenyl derivatives based on binding affinity to ERα, a commercially available fluorescence polarization assay kit (PolarScreen™ ER Alpha Competitor assay) was utilized. […] The smaller size of the free molecule can be discerned by increased mobility in the solution, which is detected by fluorescence polarization (FP). A shift in the FP value in the presence of the test compounds is used to determine the relative affinity of test compounds for ERα.
The assay was performed as per the manufacturer’s instructions. The Fluorescence polarization value (mP) of each well on a fluorescence polarization plate was measured using fluorescence polarization Tecan infinite M1000PRO multimode microplate reader (Tecan, Switzerland). Data were modelled using GraphPad Prism® software from GraphPad Software, Inc..

T47D cells = test: AlamarBlue cell viability assay, T47D; assay type: cell-based; settings: Homo sapiens
Procedure: as §1, §2

MDA-MB-361 cells = test: AlamarBlue cell viability assay, MDA-MB-361; assay type: cell-based; settings: Homo sapiens
Procedure: as §1, §2

[1] = system: MCF7 cell-generated spheroids; test: 3D Matrigel spheroid cell viability; assay type: cell-based, human; settings: preformed MCF7 spheroids in 3D Matrigel, 5 µM, 72 h
Procedure: Furthermore, we examined the effect of the novel biphenyl derivatives on preformed spheroids generated using MC cells in 3D Matrigel (Figure 2).
as §2
Figure 2 Cell viability of MCF7 cell-generated spheroids after culture in 3D Matrigel for 10 days. Preformed MCF7 cell-generated spheroids were treated with compounds for 72 h before assessing cell viability. A concentration of 5 µM was used for the treatment. The cell viability of the MCF7 cell-generated spheroids was evaluated using an AlamarBlue® viability assay as described in the Materials and Methods section. Bars are the mean of triplicate experiments; bars, ±SD. ** P < 0.001, * P < 0.05.

CCND1 protein expression = test: Western blot of CCND1 in MCF7 cells; assay type: cell-based, human
Procedure: Increased expression of CCND1 is associated with approximately 50% of breast cancer cases and directly regulated by ER signalling. To determine functional effects downstream of ERα, we examined the effect of ATBA compounds on hCCND1 protein expression in MC cells. […] Western blot analysis: Western blot analysis was performed as previously described, using a primary monoclonal antibody against CCND1 and β-ACTIN obtained from Cell Signalling, Danvers, Massachusetts, USA. Quantification of blot was performed by use of ImageJ software from NIH, USA (http://imagej.nih.gov/ij/) as described previously. […] Soluble whole-cell extracts were run on an SDS-PAGE and immunoblotted. β-ACTIN was used as input control for cell lysate (left side). The predicted sizes of detected protein bands in kDa are shown on the left side. The average of three independent densitometry analyses of CCND1 and β-ACTIN is shown above (right side) by use of Image J software from NIH, USA (http://imagej.nih.gov/ij/) as described previously.

BT474 cells = test: AlamarBlue cell viability assay, BT474; assay type: cell-based; settings: Homo sapiens, BT-474
Procedure: as §1, §2

[2] = vNN-ADMET prediction: MRTD; settings: relative to TAM
[3] = system: oestrogen response element (ERE) transcriptional activity (ERα); test: ERE-luc luciferase reporter assay in MCF7 cells; assay type: cell-based, human; settings: for antagonist activity against ERα (luciferase activity): MCF7 cells, with E2 10^-8 M, compounds 10^-10 to 10^-4 M
Procedure: as §2, with “Next, to evaluate the activity of the synthesized compounds as agonists or antagonists to ERα, a reporter assay was performed with ERE-luc. […] AlamarBlue®,” for “AlamarBlue®,”, “USA). […] (lower panel). MCF7 cells were co-transfected with ERE-luc (firefly luciferase) and Renilla luciferase constructs as described in the Materials and Methods section. […] Results are shown as mean (+SD for triplicate transfection).” for “USA).”

Row | IC50 (MCF7 cells; Homo sapiens, MCF7, AlamarBlue) | IC50 (ERα) | IC50 (MCF7 cells; AlamarBlue) | SMILES | cell viability of spheroids compared to vehicle (DMSO) [1] | antagonist activity against ERα (luciferase activity) [3] | other results
1 | > 50 µM | 0.34 µM |  | COc1ccc(Nc2ccc(Cl)cc2)cc1C12CC3CC(CC(C3)C1)C2 [4a, 3-(Adamantan-1-yl)-N-(4-chlorophenyl)-4-methoxyaniline] |  |  | 
2 | > 50 µM | 0.202 µM |  | COc1ccc(Nc2ccc(OC)c(C34CC5CC(CC(C5)C3)C4)c2)cc1 [4b, 3-(Adamantan-1-yl)-4-methoxy-N-(4-methoxyphenyl) aniline] |  |  | 
3 | 6.4 µM | 0.0628 µM | 6.29 ± 2.41 µM | COc1ccc(Nc2ccc(C(F)(F)F)cc2)cc1C12CC3CC(CC(C3)C1)C2 [4c, 3-(Adamantan-1-yl)-4-methoxy-N-(4-(trifluoromethyl)phenyl) aniline] | significantly decreased cell viability | most potent antagonist activity against ERα in a dosage-dependent manner | IC50 (T47D cells): 7.38 µM; IC50 (MDA-MB-361 cells): 8.31 µM; inhibitory effect on spheroids compared to TAM-treated spheroids [1]: significant inhibitory effect compared to TAM-treated MC cell-generated spheroids; inhibitory effect on spheroids compared to TAM-treated spheroids ([1]; listed as AMTA): superior inhibitory effect compared to tamoxifen-treated MC cell spheroids; CCND1 protein levels (CCND1 protein expression): most potently decreased the protein levels of CCND1 in MC cells in the nanomolar range; CCND1 protein levels (CCND1 protein expression; listed as AMTA): significantly decreased protein levels of oestrogen-regulated CCND1 in a dose-dependent manner; IC50 (BT474 cells): 6.36 µM; predicted maximum recommended therapeutic dose compared to TAM [2]: approximately four times higher; IC50 ([3]; Homo sapiens, MCF7): 0.83 ± 0.06 µM; antagonist activity against ERα (luciferase activity) ([3]; listed as AMTA): significantly deceased ERE transcriptional activity
4 | 8.81 ± 1.85 µM | 0.0826 µM |  | COc1ccc(Nc2cccc(O)c2)cc1C12CC3CC(CC(C3)C1)C2 [4d, 3-((3-(Adamantan-1-yl)-4-methoxyphenyl)amino) phenol] | significantly decreased cell viability | most potent antagonist activity against ERα in a dosage-dependent manner | 
5 | 12.3 ± 3.77 µM | 0.0985 µM |  | COc1ccc(Nc2ccc(C)cc2)cc1C12CC3CC(CC(C3)C1)C2 [4f, 3-(Adamantan-1-yl)-4-methoxy-N-(p-tolyl) aniline] | significantly decreased cell viability | most potent antagonist activity against ERα in a dosage-dependent manner | 
6 | 12.1 ± 3.07 µM | 0.129 µM |  | COc1ccc(Nc2cccnc2)cc1C12CC3CC(CC(C3)C1)C2 [4g] | significantly decreased cell viability | most potent antagonist activity against ERα in a dosage-dependent manner | 
7 | ~50 µM | 0.189 µM | 42.2 ± 9.31 µM | COc1ccc(Nc2ccc(C)cn2)cc1C12CC3CC(CC(C3)C1)C2 [4h] |  |  | 
8 | ~50 µM | 0.264 µM | 47.6 ± 7.48 µM | COc1ccc(Nc2cccc3ccccc23)cc1C12CC3CC(CC(C3)C1)C2 [4i] |  |  | 
